Measurements from the supplement of paper PMC10883282.

What was measured:
Experiment in all cases: relative viability vs DMSO control (72 h) (fraction); higher = more viable cells
HT1080 = tested on: HT1080
Method in brief: (§1)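 Plates held 72 h at 37 °C and 5% CO2 contained sarcoma cell lines seeded in 384-well format to reach 80–90% confluence, plus 2.5 µl of serially diluted compound added after 24 h. Source plate concentrations ran from 10 mM to 0.0002 mM, with 0.1% DMSO as vehicle and a 5 µM positive control. Percent growth from ATPLite readings, averaged over up to triplicate wells, gave relative viability. Values were rescaled with 1 as full and 0 as none.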

SW872 = tested on: SW872
Method in brief: as §1

SW1353 = tested on: SW1353
Method in brief: as §1

KHOS-NP = tested on: KHOS-NP
Method in brief: as §1

RD-ES = tested on: RD-ES
Method in brief: as §1

MES-SA = tested on: MES-SA
Method in brief: as §1

SK-ES-1 = tested on: SK-ES-1
Method in brief: as §1

SW684 = tested on: SW684
Method in brief: as §1

SK-LMS-1 = tested on: SK-LMS-1
Method in brief: as §1

G401 = tested on: G401
Method in brief: as §1

VA-ES-BJ = tested on: VA-ES-BJ
Method in brief: as §1

RD = tested on: RD
Method in brief: as §1

CCCCCCCCCCCCCCCCCCOP(=O)([O-])OC1CC[N+](C)(C)CC1 [Perifosine]
Conditions	relative viability
G401, 0.00017 µM	1.057
G401, 0.00051 µM	1.06
G401, 0.00152 µM	1.07
G401, 0.00457 µM	1.07
G401, 0.01372 µM	1.06
G401, 0.04115 µM	1.059
G401, 0.1235 µM	1.064
G401, 0.3704 µM	1.06
G401, 1.111 µM	1.05
G401, 3.333 µM	1.03
G401, 10 µM	1.06
HT1080, 0.00017 µM	1.1
HT1080, 0.00051 µM	1.083
HT1080, 0.00152 µM	1.07
HT1080, 0.00457 µM	1.06
HT1080, 0.01372 µM	1.063
HT1080, 0.04115 µM	1.06
HT1080, 0.1235 µM	1.04
HT1080, 0.3704 µM	1.0633
HT1080, 1.111 µM	1.04
HT1080, 3.333 µM	1.037
HT1080, 10 µM	1.05
KHOS-NP, 0.00017 µM	1.09
KHOS-NP, 0.00051 µM	1.1
KHOS-NP, 0.00152 µM	1.099
KHOS-NP, 0.00457 µM	1.11
KHOS-NP, 0.01372 µM	1.1
KHOS-NP, 0.04115 µM	1.08
KHOS-NP, 0.1235 µM	1.067
KHOS-NP, 0.3704 µM	1.07
KHOS-NP, 1.111 µM	1.03
KHOS-NP, 3.333 µM	0.984
KHOS-NP, 10 µM	0.496
MES-SA, 0.00017 µM	0.987
MES-SA, 0.00051 µM	0.982
MES-SA, 0.00152 µM	0.998
MES-SA, 0.00457 µM	0.974
MES-SA, 0.01372 µM	0.96
MES-SA, 0.04115 µM	0.922
MES-SA, 0.1235 µM	0.953
MES-SA, 0.3704 µM	0.936
MES-SA, 1.111 µM	0.855
MES-SA, 3.333 µM	0.918
MES-SA, 10 µM	0.781
RD, 0.00017 µM	1.05
RD, 0.00051 µM	1.07
RD, 0.00152 µM	1.09
RD, 0.00457 µM	1.11
RD, 0.01372 µM	1.07
RD, 0.04115 µM	1.07
RD, 0.1235 µM	1.1
RD, 0.3704 µM	1.07
RD, 1.111 µM	1.08
RD, 3.333 µM	1.09
RD, 10 µM	0.997
RD-ES, 0.00017 µM	0.985
RD-ES, 0.00051 µM	1
RD-ES, 0.00152 µM	1.03
RD-ES, 0.00457 µM	1.002
RD-ES, 0.01372 µM	0.978
RD-ES, 0.04115 µM	0.989
RD-ES, 0.1235 µM	1.02
RD-ES, 0.3704 µM	1.01
RD-ES, 1.111 µM	0.985
RD-ES, 3.333 µM	0.983
RD-ES, 10 µM	0.996
SK-ES-1, 0.00017 µM	1.08
SK-ES-1, 0.00051 µM	1.06
SK-ES-1, 0.00152 µM	1.07
SK-ES-1, 0.00457 µM	1.02
SK-ES-1, 0.01372 µM	0.975
SK-ES-1, 0.04115 µM	0.951
SK-ES-1, 0.1235 µM	1.05
SK-ES-1, 0.3704 µM	0.996
SK-ES-1, 1.111 µM	1.05
SK-ES-1, 3.333 µM	1.02
SK-ES-1, 10 µM	1.01
SK-LMS-1, 0.00017 µM	1.01
SK-LMS-1, 0.00051 µM	1.05
SK-LMS-1, 0.00152 µM	1.02
SK-LMS-1, 0.00457 µM	1.06
SK-LMS-1, 0.01372 µM	1.01
SK-LMS-1, 0.04115 µM	0.994
SK-LMS-1, 0.1235 µM	1.02
SK-LMS-1, 0.3704 µM	1.01
SK-LMS-1, 1.111 µM	0.848
SK-LMS-1, 3.333 µM	0.836
SK-LMS-1, 10 µM	0.68
SW684, 0.00017 µM	1.08
SW684, 0.00051 µM	1.16
SW684, 0.00152 µM	1.19
SW684, 0.00457 µM	1.14
SW684, 0.01372 µM	1.15
SW684, 0.04115 µM	1.18
SW684, 0.1235 µM	1.18
SW684, 0.3704 µM	1.21
SW684, 1.111 µM	1.24
SW684, 3.333 µM	1.16
SW684, 10 µM	1.12
SW872, 0.00017 µM	1.07
SW872, 0.00051 µM	1.1
SW872, 0.00152 µM	1.05
SW872, 0.00457 µM	1.03
SW872, 0.01372 µM	0.986
SW872, 0.04115 µM	1.05
SW872, 0.1235 µM	1.04
SW872, 0.3704 µM	0.982
SW872, 1.111 µM	0.891
SW872, 3.333 µM	0.629
SW872, 10 µM	0.519
SW1353, 0.00017 µM	1.11
SW1353, 0.00051 µM	1.1
SW1353, 0.00152 µM	1.09
SW1353, 0.00457 µM	1.08
SW1353, 0.01372 µM	1.04
SW1353, 0.04115 µM	1.04
SW1353, 0.1235 µM	1.05
SW1353, 0.3704 µM	1.07
SW1353, 1.111 µM	1.03
SW1353, 3.333 µM	1.02
SW1353, 10 µM	1.06
VA-ES-BJ, 0.00017 µM	1.08
VA-ES-BJ, 0.00051 µM	1.09
VA-ES-BJ, 0.00152 µM	1.05
VA-ES-BJ, 0.00457 µM	1.1
VA-ES-BJ, 0.01372 µM	1.07
VA-ES-BJ, 0.04115 µM	1.091
VA-ES-BJ, 0.1235 µM	1.06
VA-ES-BJ, 0.3704 µM	1.05
VA-ES-BJ, 1.111 µM	1.05
VA-ES-BJ, 3.333 µM	1.02
VA-ES-BJ, 10 µM	0.2547
